According to patent US9963464B2, “Macrocyclic compounds” (Bayer Pharma Aktiengesellschaft, priority 2014, dated 2018):

Legend:
[1] = biological target: T1, CDK2/CycE (Homo sapiens, UniProt P24941); experiment: CDK2/CycE kinase assay (TR-FRET, Method 2a); type: biochemical; conditions: 10 μM ATP
T1 construct: GST; purchased ProQinase GmbH (Freiburg, Germany); host or cells: insect cells (Sf9)
Description: 2a. CDK2/CycE Kinase Assay:
CDK2/CycE-inhibitory activity of compounds of the present invention was quantified employing the CDK2/CycE TR-FRET assay as described in the following paragraphs:
Recombinant fusion proteins of GST and human CDK2 and of GST and human CycE, expressed in insect cells (Sf9) and purified by Glutathion-Sepharose affinity chromatography, were purchased from ProQinase GmbH (Freiburg, Germany). As substrate for the kinase reaction biotinylated peptide biotin-Ttds-YISPLKSPYKISEG (C-terminus in amid form) was used which can be purchased e.g. from the company JERINI Peptide Technologies (Berlin, Germany).
For the assay 50 nl of a 100 fold concentrated solution of the test compound in DMSO was pipetted into a black low volume 384 well microtiter plate (Greiner Bio-One, Frickenhausen, Germany), 2 μl of a solution of CDK2/CycE in aqueous assay buffer [50 mM Tris/HCl pH 8.0, 10 mM MgCl2, 1.0 mM dithiothreitol, 0.1 mM sodium ortho-vanadate, 0.01% (v/v) Nonidet-P40 (Sigma)] were added and the mixture was incubated for 15 min at 22° C. to allow pre-binding of the test compounds to the enzyme before the start of the kinase reaction. […] The concentration of CDK2/CycE was adjusted depending of the activity of the enzyme lot and was chosen appropriate to have the assay in the linear range, typical concentrations were in the range of 130 ng/mL. The reaction was stopped by the addition of 5 μl of a solution of TR-FRET detection reagents (0.2 μM streptavidine-XL665 [Cisbio Bioassays, Codolet, France] and 1 nM anti-RB(pSer807/pSer811)-antibody from BD Pharmingen [#558389] and 1.2 nM LANCE EU-W1024 labeled anti-mouse IgG antibody [Perkin-Elmer, product no. AD0077]) in an aqueous EDTA-solution (100 mM EDTA, 0.2% (w/v) bovine serum albumin in 100 mM HEPES pH 7.5).
The resulting mixture was incubated 1 h at 22° C. to allow the formation of complex between the phosphorylated biotinylated peptide and the detection reagents. Subsequently the amount of phosphorylated substrate was evaluated by measurement of the resonance energy transfer from the Eu-chelate to the streptavidine-XL. Therefore, the fluorescence emissions at 620 nm and 665 nm after excitation at 350 nm was measured in a TR-FRET reader, e.g. a Rubystar (BMG Labtechnologies, Offenburg, Germany) or a Viewlux (Perkin-Elmer). The ratio of the emissions at 665 nm and at […] was taken as the measure for the amount of phosphorylated substrate. The data were normalised (enzyme reaction without inhibitor=0% inhibition, all other assay components but no enzyme=100% inhibition).

[2] = test system: DU145 cells; experiment: Proliferation assay DU145; type: cell-based, human; conditions: Homo sapiens, DU-145, 96 h, 4 days, crystal violet; read-out: Inhibition of DU145 cell proliferation IC50
Experimental: (§1) Cultivated tumour cells (HeLa, human cervical tumour cells, ATCC CCL-2; NCI-H460, human non-small cell lung carcinoma cells, ATCC HTB-177; A2780, human ovarian carcinoma cells, ECACC #93112519; DU 145, hormone-independent human prostate carcinoma cells, ATCC HTB-81; HeLa-MaTu-ADR, multidrug-resistant human cervical carcinoma cells, EPO-GmbH Berlin; Caco-2, human colorectal carcinoma cells, ATCC HTB-37; B16F10, mouse melanoma cells, ATCC CRL-6475) were plated at a density of 5,000 cells/well (DU145, HeLa-MaTu-ADR), 3,000 cells/well (NCI-H460, HeLa), 2,500 cells/well (A2780), 1,500 cells/well (Caco-2), or 1,000 cells/well (B16F10) in a 96-well multititer plate in 200 μL of their respective growth medium supplemented 10% fetal calf serum. After 24 hours, the cells of one plate (zero-point plate) were stained with crystal violet (see below), while the medium of the other plates was replaced by fresh culture medium (200 μl), to which the test substances were added in various concentrations (0 μM, as well as in the range of 0.001-10 μM). The cells were incubated for 4 days in the presence of test substances. Cell proliferation was determined by staining the cells with crystal violet: the cells were fixed by adding 20 μl/measuring point of an 11% glutaric aldehyde solution for 15 minutes at room temperature. After three washing cycles of the fixed cells with water, the plates were dried at room temperature. The cells were stained by adding 100 μl/measuring point of a 0.1% crystal violet solution (pH 3.0). After three washing cycles of the stained cells with water, the plates were dried at room temperature. The dye was dissolved by adding 100 μl/measuring point of a 10% acetic acid solution. The extinction was determined by photometry at a wavelength of 595 nm. The change of cell number, in percent, was calculated by normalization of the measured values to the extinction values of the zero-point plate (=0%) and the extinction of the untreated (0 μm) cells (=100%). The IC50 values (inhibitory concentration at 50% of maximal effect) were determined by means of a 4 parameter fit. Non-adherent MOLM-13 human acute myeloid leukemia cells (DSMZ ACC 554) were seeded at a density of 5,000 cells/well in a 96-well multititer plate in 100 μL of growth medium supplemented 10% fetal calf serum. After 24 hours, cell viability of one plate (zero-point plate) was determined with the Cell Titre-Glo Luminescent Cell Viability Assay (Promega), while 50 μL of test compound containing medium was added to the wells of the other plates (final concentrations in the range of 0.001-1 μM and DMSO controls). Cell viability was assessed after 72-hour exposure with the Cell Titre-Glo Luminescent Cell Viability Assay (Promega). IC50 values (inhibitory concentration at 50% of maximal effect) were determined by means of a 4 parameter fit on measurement data which were normalized to vehicle (DMSO) treated cells (=100%) and measurement readings taken immediately before compound exposure (=0%).

[3] = test system: Caco-2 cells; experiment: Proliferation assay Caco-2; type: cell-based, human; conditions: Homo sapiens, Caco-2, 96 h, 4 days, crystal violet; read-out: Inhibition of Caco-2 cell proliferation IC50
Experimental: as §1

[4] = test system: HeLa-MaTu-ADR cells; experiment: Proliferation assay HeLa-MaTu-ADR; type: cell-based, human; conditions: Homo sapiens, 96 h, 4 days, crystal violet; read-out: Inhibition of HeLa-MaTu-ADR cell proliferation IC50
Experimental: as §1

[5] = test system: NCI-H460 cells; experiment: Proliferation assay NCI-H460; type: cell-based, human; conditions: Homo sapiens, NCI-H460, 96 h, 4 days, crystal violet; read-out: Inhibition of NCI-H460 cell proliferation IC50
Experimental: as §1

[6] = test system: HeLa cells; experiment: Proliferation assay HeLa; type: cell-based, human; conditions: Homo sapiens, HeLa, 96 h, 4 days, crystal violet; read-out: Inhibition of HeLa cell proliferation IC50
Experimental: as §1

| IC50 [1] | IC50 [2] | IC50 [3] | IC50 [4] | IC50 [5] | IC50 [6] | SMILES |
| --- | --- | --- | --- | --- | --- | --- |
| 19.3 nM | 40 nM | 27 nM | 20 nM | 36 nM | 17 nM | CS(=O)(=O)N=S(C)(=O)Cc1cc2nc(c1)OCCCOc1cc(F)ccc1-c1cc(ncc1F)N2 (racemic) [Example 22, (rac)-N-[{[15,19-difluoro-3,4-dihydro-2H,11H-10,6-(azeno)-12,16-(metheno)-1,5,11,13-benzodioxadiazacyclooctadecin-8-yl]methyl}(methyl)oxido-λ^6-sulfanylidene]methanesulfonamide] |
| 21.2 nM | 10 nM | 9 nM |  | 20 nM | 8 nM | CS(=N)(=O)Cc1cc2cc(c1)OCCCCOc1cc(F)ccc1-c1nc(ncc1F)N2 (racemic) [Example 1, (rac)-16,20-Difluoro-9-[(S-methylsulfonimidoyl)methyl]-2,3,4,5-tetrahydro-12H-13,17-(azeno)-11,7-(metheno)-1,6,12,14-benzodioxadiazacyclononadecine] |
| 2 nM | 4 nM | 4 nM |  | 6 nM | 2 nM | CS(=N)(=O)Cc1cc2nc(c1)OCCCOc1cc(F)ccc1-c1cc(ncc1F)N2 (racemic) [Example 5, (rac)-15,19-Difluoro-8-[(S-methylsulfonimidoyl)methyl]-3,4-dihydro-2H,11H-10,6-(azeno)-12,16-(metheno)-1,5,11,13-benzodioxadiazacyclooctadecine] |
| 58.2 nM | 17 nM | 15 nM | 12 nM | 26 nM | 10 nM | CS(=O)(Cc1cc2cc(c1)OCCCOc1cc(F)ccc1-c1nc(ncc1F)N2)=NC(=O)C(F)(F)F (racemic) [Example 16, (rac)-N-[{[15,19-difluoro-3,4-dihydro-2H,11H-12,16-(azeno)-10,6-(metheno)-1,5,11,13-benzodioxadiazacyclooctadecin-8-yl]methyl}(methyl)oxido-λ^6-sulfanylidene]-2,2,2-trifluoroacetamide] |
| 19.8 nM | 16 nM | 13 nM | 20 nM | 19 nM | 11 nM | CS(=N)(=O)Cc1cc2nc(c1)OCCCCOc1cc(F)ccc1-c1cc(ncc1F)N2 (racemic) [Example 14, (rac)-16,20-difluoro-9-[(S-methylsulfonimidoyl)methyl]-2,3,4,5-tetrahydro-12H-11,7-(azeno)-13,17-(metheno)-1,6,12,14-benzodioxadiazacyclononadecine] |
| 114 nM | 218 nM | 61 nM | 207 nM | 63 nM | 281 nM | CSCc1cc2nc(c1)OCCCCOc1cc(F)ccc1-c1cc(ncc1F)N2 [Example 12, 16,20-Difluoro-9-[(methylsulfanyl)methyl]-2,3,4,5-tetrahydro-12H-11,7-(azeno)-13,17-(metheno)-1,6,12,14-benzodioxadiazacyclononadecine] |
| 8.2 nM | 26 nM | 14 nM | 10 nM | 27 nM | 10 nM | CC(=O)N=S(C)(=O)Cc1cc2nc(c1)OCCCOc1cc(F)ccc1-c1cc(ncc1F)N2 (racemic) [Example 18, (rac)-N-[{[15,19-difluoro-3,4-dihydro-2H,11H-10,6-(azeno)-12,16-(metheno)-1,5,11,13-benzodioxadiazacyclooctadecin-8-yl]methyl}(methyl)oxido-λ^6-sulfanylidene]acetamide] |
| 5.6 nM | 123 nM | 47 nM | 32 nM | 109 nM | 14 nM | CS(=O)(Cc1cc2nc(c1)OCCCOc1cc(F)ccc1-c1cc(ncc1F)N2)=NC(=O)OCCN (racemic) [Example 25, (rac)-2-aminoethyl [{[15,19-difluoro-3,4-dihydro-2H,11H-10,6-(azeno)-12,16-(metheno)-1,5,11,13-benzodioxadiazacyclooctadecin-8-yl]methyl}(methyl)oxido-λ^6-sulfanylidene]carbamate] |
| 415 nM | 324 nM | 584 nM | 476 nM | 393 nM | 195 nM | C[S+]([O-])Cc1cc2nc(c1)OCCOc1cc(F)ccc1-c1cc(ncc1F)N2 (racemic) [Example 10, (rac)-14,18-difluoro-7-[(methylsulfinyl)methyl]-2,3-dihydro-10H-9,5-(azeno)-11,15-(metheno)-1,4,10,12-benzodioxadiazacycloheptadecine] |
| 16.7 nM | 30 nM | 22 nM | 31 nM | 33 nM |  | C[S+]([O-])Cc1cc2nc(c1)OCCCCOc1cc(F)ccc1-c1cc(ncc1F)N2 (racemic) [Example 13, (rac)-16,20-difluoro-9-[(methylsulfinyl)methyl]-2,3,4,5-tetrahydro-12H-11,7-(azeno)-13,17-(metheno)-1,6,12,14-benzodioxadiazacyclononadecine] |
| 18200 nM |  | 811 nM |  |  |  | CSCc1cc2nc(c1)OCCOc1cc(F)ccc1-c1cc(ncc1F)N2 [Example 9, 14,18-Difluoro-7-[(methylsulfanyl)methyl]-2,3-dihydro-10H-9,5-(azeno)-11,15-(metheno)-1,4,10,12-benzodioxadiazacycloheptadecine] |
